30 compounds from paper PMC8286840, “Identifying SARS-CoV-2 antiviral compounds by screening for small molecule inhibitors of Nsp3 papain-like protease” (Biochemical Journal, 2021) can be followed below.

Structures can show the parent of a compound that is named as a salt. Where two headings read alike, the source gives them in different places.

Test [1] addresses T1, SARS-CoV-2 PLpro (nsp3 1564–1878) (Severe acute respiratory syndrome coronavirus 2, UniProt P0DTD1). The test can be described thus: biochemical. As to conditions: low concentration screen, read-out: % of control remaining. Set-up: FRET-quenched peptide (Pro3) cleavage by PLpro, 10 min pre-incubation, slope over 20 min, normalised to no-compound control.
For test [2], the target named is T1, SARS-CoV-2 PLpro (nsp3 1564–1878). The test is described as follows: biochemical. Set-up: FRET-quenched peptide (Pro3) cleavage by PLpro, 10 min pre-incubation, slope over 20 min, normalised to no-compound control. As to conditions: high concentration screen, read-out: % of control remaining.

Take `CCOC(=O)c1ccc(NC2CCCCC2)c(N)c1` [Ferrostatin-1]: the remaining activity at 1.25 µM in test [1] (Well no.=6252) worked out at 103%. The remaining activity at 3.75 µM in test [2] (Well no.=6252) is 98%.
Consider `COCc1nnc(N2CC(Oc3ccc(F)cc3Cl)C2)n1-c1ccc(OC)nc1` [PF-3274167], for which, in test [1] (Well no.=7285), the remaining activity at 1.25 µM was 99.6%. Further, in test [2] (Well no.=7285), the remaining activity at 3.75 µM was found to be 97.3%.
In the case of `CC(C)C(=O)Nc1ncc(-c2cc(C(F)F)nn2-c2c(Cl)cccc2Cl)s1` [BMS-5], the remaining activity at 1.25 µM in test [1] (Well no.=2705) worked out at 100%. Also, the remaining activity at 3.75 µM in test [2] (Well no.=2705) was found to be 96.9%.
Take `CC(C)[C@H](CO)Nc1nc(Nc2cccc(Cl)c2)c2ncn(C(C)C)c2n1` [Purvalanol A - (2R)-2-[[6-[(3-Chlorophenyl)amino]-9-(1-methylethyl)-9H-purin-2-yl]amino]-3-methyl-1-butanol]: in test [1] (Well no.=2434), the remaining activity at 1.25 µM amounted to 105%. Also, the remaining activity at 3.75 µM in test [2] (Well no.=2434) turned out to be 105%.
As for `CCCCC[C@H](CC(=O)NO)C(=O)N[C@H](C(=O)N1CCC[C@H]1CO)C(C)C` [Actinonin], the remaining activity at 1.25 µM in test [1] (Well no.=21) came out at 97.8%. For the same compound, the remaining activity at 3.75 µM in test [2] (Well no.=21) stood at 97.8%.
Turning to `Fc1ccc(Cl)cc1-c1nc(Nc2ccncc2)c2nccnc2n1` [SD 208 - 2-(5-Chloro-2-fluorophenyl)-4-[(4-pyridyl)amino]pteridine], the remaining activity at 1.25 µM in test [1] (Well no.=2680) is 97.3%. Moreover, the remaining activity at 3.75 µM in test [2] (Well no.=2680) was 99.7%.
In the case of `Cc1c(-c2c(-c3ccc(F)o3)sc3ncnc(O[C@H](Cc4ccccc4OCc4ccnn4CC(F)(F)F)C(=O)O)c23)ccc(OCCN2CCN(C)CC2)c1Cl` [S63845], in test [1] (Well no.=7208), the remaining activity at 1.25 µM was 92.6%. In test [2] (Well no.=7208), the remaining activity at 3.75 µM was determined as 88.1%.
For the compound `COc1cc2ncnc(N3CCN(C(=O)Nc4ccc(Oc5ccccc5)cc4)CC3)c2cc1OC` [PDGF Receptor Tyrosine Kinase Inhibitor III], in test [1] (Well no.=2505), the remaining activity at 1.25 µM came to 104%. The remaining activity at 3.75 µM in test [2] (Well no.=2505) came out at 106%.
For the compound `N=c1ccn2c(n1)O[C@H]1[C@H](O)[C@@H](CO)O[C@H]12` [Ancitabine hydrochloride], the remaining activity at 1.25 µM in test [1] (Well no.=294) was found to be 98.8%. Also, in test [2] (Well no.=294), the remaining activity at 3.75 µM amounted to 93.7%.
As for `CC(C)CC(=O)Nc1n[nH]c2c1CN(C(=O)C1CCN(C)CC1)C2(C)C` [PHA-793887], the remaining activity at 1.25 µM in test [1] (Well no.=4907) amounted to 94.3%. Moreover, the remaining activity at 3.75 µM in test [2] (Well no.=4907) was 93.7%.
With `CCCCOc1ccc(C(=O)CCN2CCCCC2)cc1` [Dyclonine (hydrochloride)], in test [1] (Well no.=8318), the remaining activity at 1.25 µM came out at 95.9%. Also, the remaining activity at 3.75 µM in test [2] (Well no.=8318) is 94.4%.
Consider `O=C(O)c1cn(-c2ccc(F)cc2)c2cc(N3CCNCC3)c(F)cc2c1=O` [Sarafloxacin], for which the remaining activity at 1.25 µM in test [1] (Well no.=2241) is 101%. Moreover, the remaining activity at 3.75 µM in test [2] (Well no.=2241) is 101%.
Turning to `CO[C@H]1CC[C@@H](O[C@H]2C[C@H]([C@]3(C)CC[C@]4(C[C@H](O)[C@@H](C)[C@@H]([C@@H](C)/C=C(\C)C(=O)[C@H](C)C[C@H](C)C(=O)O)O4)O3)O[C@]3(O[C@@H]([C@H]4O[C@@](O)(CO)[C@H](C)C[C@@H]4C)C[C@@H]3C)[C@@H]2C)O[C@@H]1C` [Nanchangmycin], the remaining activity at 1.25 µM in test [1] (Well no.=4861) was 101%. In test [2] (Well no.=4861), the remaining activity at 3.75 µM amounted to 104%.
On to `Cc1nc2cc3nc(-c4cccs4)cnc3cc2n1C` [AGL 2043], for which the remaining activity at 1.25 µM in test [1] (Well no.=2309) turned out to be 104%. The remaining activity at 3.75 µM in test [2] (Well no.=2309) is 103%.
`CCN(CC)CCCCN1c2ccccc2Oc2ccc(Cl)cc21` [Akt Inhibitor X]: in test [1] (Well no.=2317), the remaining activity at 1.25 µM is 101%. Besides, the remaining activity at 3.75 µM in test [2] (Well no.=2317) turned out to be 102%.
With `COc1cc(C(O)C(=O)O)ccc1O` (stereo not shown) [hydroxy(4-hydroxy-3-methoxyphenyl)acetic acid], the remaining activity at 1.25 µM in test [1] (Well no.=5433) came to 103%. Besides, the remaining activity at 3.75 µM in test [2] (Well no.=5433) came to 108%.
As to `COc1ccc2c(c1O)-c1c3c(cc4c1[C@H](C2)N(C)CC4)OCO3` [(+)-Bulbocapnine hydrochloride], the remaining activity at 1.25 µM in test [1] (Well no.=494) came out at 102%. For the same compound, the remaining activity at 3.75 µM in test [2] (Well no.=494) is 102%.
On to `C[C@H](N[C@@H](CCc1ccccc1)C(=O)O)C(=O)N1CCC[C@H]1C(=O)O` [Enalaprilat], for which the remaining activity at 1.25 µM in test [1] (Well no.=1900) is 95.1%; in test [1] (Well no.=5968) it was 99.8%. The figures for the remaining activity at 3.75 µM in test [2] (Well no.=1900) and in test [2] (Well no.=5968) were 93.8% and 98.2%, respectively.
`Clc1cccc(COc2cncc(N3CCNCC3)n2)c1` [CP-809101 (hydrochloride)]: the remaining activity at 1.25 µM in test [1] (Well no.=7851) stood at 95.1%. Also, the remaining activity at 3.75 µM in test [2] (Well no.=7851) came out at 83.3%.
Regarding `CC(=O)OC(C)C[N+](C)(C)C` (stereo not shown) [Methacholine (chloride)], the remaining activity at 1.25 µM in test [1] (Well no.=6323) was found to be 100%. Further, in test [2] (Well no.=6323), the remaining activity at 3.75 µM was determined as 98.1%.
Regarding `CCC(=O)O[C@]1(C(=O)SCF)[C@H](C)C[C@H]2[C@@H]3C[C@H](F)C4=CC(=O)C=C[C@]4(C)[C@@]3(F)[C@@H](O)C[C@@]21C` [Fluticasone (propionate)], the remaining activity at 1.25 µM in test [1] (Well no.=7515) was 98.2%. For the same compound, the remaining activity at 3.75 µM in test [2] (Well no.=7515) was determined as 97.6%.
Consider `O=C(NC[C@H]1CN(c2ccc(N3CCOCC3=O)cc2)C(=O)O1)c1ccc(Cl)s1` [Rivaroxaban], for which the remaining activity at 1.25 µM in test [1] (Well no.=8390) amounted to 93.8%. In addition, the remaining activity at 3.75 µM in test [2] (Well no.=8390) came out at 88.4%.
For `Clc1cccc(Cl)c1NC1=NCCN1` [Clonidine.HCl], the remaining activity at 1.25 µM in test [1] (Well no.=1691) came out at 96%. In addition, the remaining activity at 3.75 µM in test [2] (Well no.=1691) worked out at 94.2%.
For `O=c1c(O)c(-c2ccc(O)cc2)oc2cc(O)cc(O)c12` [Kaempferol], the remaining activity at 1.25 µM in test [1] (Well no.=3426) turned out to be 89.4%; in test [1] (Well no.=6246), 105%. Moreover, the results for the remaining activity at 3.75 µM in test [2] (Well no.=3426) and in test [2] (Well no.=6246) were 90.3% and 109%, respectively.
Take `NC(N)=NCc1cccc(I)c1` [m-Iodobenzylguanidine hemisulfate]: in test [1] (Well no.=777), the remaining activity at 1.25 µM came out at 105%. Moreover, the remaining activity at 3.75 µM in test [2] (Well no.=777) was 108%.
With `CN(C)Cc1cccc(N/C(=C2\C(=O)Nc3cc(C(N)=O)ccc32)c2ccccc2)c1` [BIX 02188], the remaining activity at 1.25 µM in test [1] (Well no.=5283) was found to be 96.6%. Also, the remaining activity at 3.75 µM in test [2] (Well no.=5283) was determined as 93.8%.
With `CC(C)(C)c1cc(C(C)(C)C)c(NC(=O)c2c[nH]c3ccccc3c2=O)cc1O` [Ivacaftor (VX-770)], the remaining activity at 1.25 µM in test [1] (Well no.=5055) was found to be 105%. Moreover, the remaining activity at 3.75 µM in test [2] (Well no.=5055) was 102%.
As to `Cc1cccc(C(C)c2c[nH]cn2)c1C` (stereo not shown) [Medetomidine HCl], the remaining activity at 1.25 µM in test [1] (Well no.=4927) was 99.2%. Further, the remaining activity at 3.75 µM in test [2] (Well no.=4927) turned out to be 100%.
Turning to `CN(Cc1cc(Br)cc(Br)c1N)C1CCCCC1` [Bromhexine], in test [1] (Well no.=2177), the remaining activity at 1.25 µM worked out at 98.4%. In addition, the remaining activity at 3.75 µM in test [2] (Well no.=2177) is 102%.
Regarding `CC1=C2[C@H]3OC(=O)[C@@H](C)[C@@H]3CC[C@@]2(C)C=CC1=O` [Santonin], in test [1] (Well no.=3717), the remaining activity at 1.25 µM turned out to be 90%. The remaining activity at 3.75 µM in test [2] (Well no.=3717) amounted to 95.8%.
